Test results as given in patent US10858360B2, “Tricyclic gyrase inhibitors” (priority 2011, dated 2020).
In brackets after ≈: the same amount, converted by molar mass.

Columns and labels:
[1] = system: S. aureus ATCC 13709; experiment: MIC, S. aureus ATCC 13709 (Alamar Blue broth microdilution); type: cell-based; settings: Alamar Blue read after overnight incubation at 35° C.; for MIC: Staphylococcus aureus, ATCC13709, S. aureus; for MIC Sa: S. aureus
[2] = system: E. coli ATCC 25922; experiment: MIC, E. coli ATCC 25922; type: cell-based; settings: Alamar Blue read after overnight incubation at 35° C.; for MIC: Escherichia coli, ATCC25922, E. coli; for MIC Ec: E. coli

| Structure (SMILES) | MIC [1] [µg/mL] | MIC [2] [µg/mL] | MIC Sa [1] [µg/mL] | MIC Ec [2] [µg/mL] |
| --- | --- | --- | --- | --- |
| CNc1cccc2c1[nH]c1nc(Oc3cncc(C#N)c3)nc(N3CCN(CCN4CCOCC4)CC3)c12 [3.59] | 4 (≈ 7.79 µM) | > 64 |  |  |
| CNc1cccc2c1[nH]c1nc(Oc3cncnc3)nc(N3CC4CCC(N)C4C3)c12 (stereo not shown) [3.15] | 1 (≈ 2.4 µM) | 8 (≈ 19.2 µM) |  |  |
| CNc1cccc2c1[nH]c1nc(Oc3cncc(C#N)c3)nc(N3CCN(CCN)CC3)c12 [3.55] | 64 (≈ 144 µM) | > 64 |  |  |
| CNc1cc(F)cc2c1[nH]c1nc(Oc3cnc(C)nc3)nc(N3CC4CC3CC4N)c12 (stereo not shown) [4.130] |  |  | ≤0.5 | ≤0.5 |
| CNc1cc(F)cc2c1[nH]c1nc(Oc3cnc(C)nc3)nc(C3=CCNCC3)c12 [4.162] |  |  | 8 (≈ 19.7 µM) | >16 |
| CNc1cc(F)cc2c1[nH]c1nc(Oc3cnc(C)nc3)nc(N3CC4[C@H](N)C[C@]4(C)C3)c12 (stereo partly shown) [4.146] | ≤ 0.5 | ≤ 0.5 |  |  |
| CNc1cc(F)cc2c1[nH]c1nc(Oc3cnc(C(C)(C)O)nc3)nc(N3CC4CC3C[C@@H]4N)c12 (stereo partly shown) [4.411] | ≤ 0.5 | ≤ 0.5 |  |  |
| CNc1cc(F)cc2c1[nH]c1nc(Oc3cncnc3)nc(N3CCC4(CC4N)C3)c12 (stereo not shown) [4.003] | ≤ 0.5 | ≤ 0.5 |  |  |
| CNc1cc(F)cc2c1[nH]c1nc(Oc3cnc(S(C)(=O)=O)nc3)nc(N3CC4C(N)CC4(C)C3)c12 (stereo not shown) [4.385] |  |  | ≤0.5 | ≤0.5 |
| CNc1cc(F)cc2c1[nH]c1nc(Oc3cncc(C)c3)nc(N3CC4CC(N)C4C3)c12 (stereo not shown) [4.303] | ≤ 0.5 | ≤ 0.5 |  |  |
| CNc1cccc2c1[nH]c1nc(Oc3cncnc3)nc(N3CCC[C@@H](N)C3)c12 [3.16] | 4 (≈ 10.2 µM) | 4 (≈ 10.2 µM) |  |  |
| CNc1cccc2c1[nH]c1nc(Oc3cnc(C)nc3)nc(N3CC4C(N)C4C3)c12 (stereo not shown) [3.29] | ≤ 0.5 | ≤ 0.5 |  |  |
| CNc1cccc2c1[nH]c1nc(Sc3cnc4ccc[n+]([O-])c4c3)nc(N3CC(O)C3)c12 [1.17] | ≤ 0.5 | > 64 |  |  |
| CNc1cc(F)cc2c1[nH]c1nc(Oc3cnc(C)nc3)nc(N3CC[C@H](N)[C@@H](F)C3)c12 [4.144] | ≤ 0.5 | 1 (≈ 2.27 µM) |  |  |
| CNc1cc(F)cc2c1[nH]c1nc(Oc3cnc(N)nc3)nc(N3CC4CCC(N)C4C3)c12 (stereo not shown) [4.189] | ≤ 0.5 | 2 (≈ 4.45 µM) |  |  |
| CNc1cc(F)cc2c1[nH]c1nc(Oc3cnc(C)nc3)nc(N3CCCC4(CC4N)C3)c12 (stereo not shown) [4.101] |  |  | ≤0.5 | ≤0.5 |

| Structure (SMILES) | MIC [1] [µg/mL] | MIC [2] [µg/mL] | MIC Sa [1] [µg/mL] | MIC Ec [2] [µg/mL] |
| --- | --- | --- | --- | --- |
| CNc1cc(F)cc2c1[nH]c1nc(Oc3cnc(C(C)C)nc3)nc(N3CC4C(N)C4C3)c12 (stereo not shown) [4.232] |  |  | ≤0.5 | ≤0.5 |
| CNc1cccc2c1[nH]c1nc(Sc3cnc4nccnc4c3)nc(N3CC4C(N)C4C3)c12 (stereo not shown) [1.16] | ≤ 0.5 | 1 (≈ 2.2 µM) |  |  |
| CNc1cc(F)cc2c1[nH]c1nc(Oc3cnc(N)nc3)nc(N3CCCC(N)C3)c12 (stereo not shown) [4.180] |  |  | 1 (≈ 2.36 µM) | 8 (≈ 18.9 µM) |
| CNc1cc(F)cc2c1[nH]c1nc(Oc3cnc4cccnc4c3)nc(N3CC4NCCOC4C3)c12 (stereo not shown) [4.048] |  |  | ≤0.5 | 1 (≈ 2.06 µM) |
| CNc1ccc(C)c2c1[nH]c1nc(Sc3cnc4ccc[n+]([O-])c4c3)nc(N3CC4C(N)C4C3)c12 (stereo not shown) [1.73] | ≤ 0.5 | 8 (≈ 16.5 µM) |  |  |
| CNc1cc(F)cc2c1[nH]c1nc(Oc3ccc4c(c3)C(=O)NC4)nc(N3CC4[C@H](C[C@H]4N)C3)c12 (stereo partly shown) [4.267] | ≤ 0.5 | 4 (≈ 8.45 µM) |  |  |
| CNc1cc(F)cc2c1[nH]c1nc(Oc3cnc(C4CC4)nc3)nc(N3CC4CC4(CN)C3)c12 (stereo not shown) [4.246] | ≤ 0.5 | ≤ 0.5 |  |  |
| CNc1cc(F)cc2c1[nH]c1nc(Oc3cnc(CC(=O)N(C)OC)nc3)nc(N3C[C@H](N)C4(CC4)C3)c12 [4.370] | ≤ 0.5 | 1 (≈ 1.92 µM) |  |  |
| CNc1cc(F)cc2c1[nH]c1nc(Oc3cnc4c(c3)C(=O)NC4)nc(N3C[C@H](N)C4(CC4)C3)c12 [4.356] | ≤ 0.5 | 4 (≈ 8.43 µM) |  |  |
| CNc1cc(F)cc2c1[nH]c1nc(Oc3cnc4[nH]cnc4c3)nc(N3CC4CC(N)C4C3)c12 (stereo not shown) [4.310] | 8 (≈ 17.4 µM) | > 16 |  |  |
| CNc1cc(F)cc2c1[nH]c1nc(Oc3cncnc3)nc(N3CC4C[C@@H]3CN4)c12 [4.022] | 8 (≈ 19.7 µM) | 16 (≈ 39.4 µM) |  |  |
| CNc1cc(F)cc2c1[nH]c1nc(Oc3cncc(C(N)=O)c3)nc(N3CC4CC(N)C4C3)c12 (stereo not shown) [4.236] | ≤ 0.5 | ≤ 0.5 |  |  |
| CNc1cc(F)cc2c1[nH]c1nc(Oc3cncc(Cl)c3)nc(N3CC(N)C3)c12 [4.277] | ≤ 0.5 | ≤ 0.5 |  |  |
| CNc1cc(F)cc2c1[nH]c1nc(Oc3ccc4oc(C)nc4c3)nc(N3C[C@H]4CC[C@@H](N)[C@H]4C3)c12 [4.336] | ≤ 0.5 | 1 (≈ 2.05 µM) |  |  |
| CNc1cc(F)cc2c1[nH]c1nc(Oc3cnc(CF)nc3)nc(N3C[C@H]4CC3C[C@H]4N)c12 [4.443] | ≤ 0.5 | ≤ 0.5 |  |  |
| CNc1cc(F)cc2c1[nH]c1nc(Sc3cnc4ccc[n+]([O-])c4c3)nc(N3CCC4(CC4N)C3)c12 (stereo not shown) [1.64] | ≤ 0.5 | ≤ 0.5 |  |  |
